The values below are quoted from earlier work in patent US20240316118A1, “ANTIVIRAL NASAL SPRAY FLAVONOIDS?BEE PROPOLIS” (priority 2022, published 2024).

In one series the test system is Influenza virions. The settings on record: Influenza A/WS/33, Ref. [37].
In a further series the test system is NS5A, HSP70, HCV virions. The settings on record: Ref. [41].
For another series, the target named is Envelope protein, 2 (Hepatitis C virus genotype 1a, UniProt P26664). The settings on record: HCV Envelope protein 2, Ref. [41].
Another series concerns PEDV. As to conditions: Vero cells.
A further series relates to Vero cells. The settings on record: PEDV study.
The subject of a further series is HCV replicase. As to conditions: Ref. [19].
The target of another series is NS3 protease (Hepatitis C virus genotype 1a, UniProt P26664). As to conditions: for Molecular Mechanisms: HCV replication: NS3 protease.
The target in a further series is NS5B polymerase (Hepatitis C virus genotype 1a, UniProt P26664). As to conditions: for Molecular Mechanisms: HCV replication: NS5B polymerase, Refs. [33], [40].
The subject of another series is bovine coronavirus NCDCV. The settings on record: at a concentration of 60 μg/mL.
The test system of a further series is human coronavirus OC43. As to conditions: at a concentration of 60 μg/mL.
The subject of series [1] is Dengue virus type 2 (DENV-2). As to conditions: Vero cells.
Another series concerns cytomegalovirus. As to conditions: inoculated HeLa cells; read-out: half inhibitory concentration (IC50), replication of cytomegalovirus.
The test system of another series is Phosphoprotein P. As to conditions: Ref. [32]; for Molecular Mechanisms: viral replication: RSV.
Another series deals with DENV-2 virions. As to conditions: DENV-2, Ref. [40].
In another series the target is HIV protease (Human immunodeficiency virus type 1 group M subtype B, UniProt P04585). The settings on record: Ref. [27] (computational).
The target in a further series is NS1 (Dengue virus type 2, UniProt P29990). The settings on record: Ref. [23] (molecular docking).
The subject of the next series is Rotavirus virions. As to conditions: Rhesus Rotavirus, Ref. [20].
The subject of another series is NOX4. The settings on record: NOX4, Ref. [24].
For the next series, the system named is SARS-CoV. The settings on record: Vero E6 cells; read-out: half-effective concentration (EC50), SARS-CoV infection.
For the next series, the target named is Reverse transcriptase (Human immunodeficiency virus type 1 group M subtype B, UniProt P04585). The settings on record: Refs. [43], [31].
In the next series the target is NTCP receptor (Homo sapiens, UniProt Q14973).

≈ marks a conversion by molar mass, not a printed value. Like-named read-outs stand apart in the source and are kept apart here.

Chain of NS1 (P29990 776-1127 limits assumed): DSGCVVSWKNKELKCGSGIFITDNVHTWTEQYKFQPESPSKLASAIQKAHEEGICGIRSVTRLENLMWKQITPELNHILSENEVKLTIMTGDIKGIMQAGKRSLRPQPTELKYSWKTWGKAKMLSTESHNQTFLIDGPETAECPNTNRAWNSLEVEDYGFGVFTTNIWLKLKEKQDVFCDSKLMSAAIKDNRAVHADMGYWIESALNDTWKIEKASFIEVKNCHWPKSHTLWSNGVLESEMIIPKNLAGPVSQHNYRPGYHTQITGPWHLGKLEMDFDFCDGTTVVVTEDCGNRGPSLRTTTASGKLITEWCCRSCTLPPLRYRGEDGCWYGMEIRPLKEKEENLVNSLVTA
Chain of NS3 protease (P26664 1027-1657): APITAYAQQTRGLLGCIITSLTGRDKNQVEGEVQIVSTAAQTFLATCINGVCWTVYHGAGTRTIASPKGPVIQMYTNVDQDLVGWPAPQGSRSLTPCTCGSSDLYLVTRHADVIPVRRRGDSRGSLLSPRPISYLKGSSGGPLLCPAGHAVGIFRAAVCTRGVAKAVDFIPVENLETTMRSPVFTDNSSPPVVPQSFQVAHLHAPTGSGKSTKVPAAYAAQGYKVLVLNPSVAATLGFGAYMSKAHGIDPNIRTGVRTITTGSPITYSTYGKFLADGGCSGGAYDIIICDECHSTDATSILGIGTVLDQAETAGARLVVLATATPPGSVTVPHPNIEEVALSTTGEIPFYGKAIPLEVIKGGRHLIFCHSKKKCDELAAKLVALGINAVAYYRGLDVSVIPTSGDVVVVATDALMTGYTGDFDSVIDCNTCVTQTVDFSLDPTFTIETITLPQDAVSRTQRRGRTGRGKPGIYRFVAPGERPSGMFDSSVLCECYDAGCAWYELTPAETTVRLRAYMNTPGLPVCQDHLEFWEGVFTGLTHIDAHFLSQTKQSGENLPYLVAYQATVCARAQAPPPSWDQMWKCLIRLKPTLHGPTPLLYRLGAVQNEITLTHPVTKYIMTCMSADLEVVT
Chain of NS3 protease (P26664 1658-1711): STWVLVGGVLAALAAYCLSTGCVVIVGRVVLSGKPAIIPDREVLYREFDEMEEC
Chain of NS5B polymerase (P26664 2421-3011): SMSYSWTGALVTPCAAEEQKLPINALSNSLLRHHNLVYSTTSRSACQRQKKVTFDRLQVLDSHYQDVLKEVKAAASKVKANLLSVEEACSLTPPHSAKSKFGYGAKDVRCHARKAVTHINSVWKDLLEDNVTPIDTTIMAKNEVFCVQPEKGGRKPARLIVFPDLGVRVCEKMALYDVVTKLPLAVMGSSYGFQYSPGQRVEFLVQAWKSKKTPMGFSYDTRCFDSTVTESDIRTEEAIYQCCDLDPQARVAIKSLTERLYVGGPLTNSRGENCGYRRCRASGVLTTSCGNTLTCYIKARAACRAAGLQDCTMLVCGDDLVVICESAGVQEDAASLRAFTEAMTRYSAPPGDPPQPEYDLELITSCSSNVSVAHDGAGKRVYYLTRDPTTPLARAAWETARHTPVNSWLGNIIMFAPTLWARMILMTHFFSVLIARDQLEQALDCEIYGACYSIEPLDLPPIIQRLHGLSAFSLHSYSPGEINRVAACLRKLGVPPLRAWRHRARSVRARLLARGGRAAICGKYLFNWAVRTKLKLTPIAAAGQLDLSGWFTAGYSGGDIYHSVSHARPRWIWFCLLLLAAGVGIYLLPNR
Chain of Envelope protein, 2 (P26664 384-746): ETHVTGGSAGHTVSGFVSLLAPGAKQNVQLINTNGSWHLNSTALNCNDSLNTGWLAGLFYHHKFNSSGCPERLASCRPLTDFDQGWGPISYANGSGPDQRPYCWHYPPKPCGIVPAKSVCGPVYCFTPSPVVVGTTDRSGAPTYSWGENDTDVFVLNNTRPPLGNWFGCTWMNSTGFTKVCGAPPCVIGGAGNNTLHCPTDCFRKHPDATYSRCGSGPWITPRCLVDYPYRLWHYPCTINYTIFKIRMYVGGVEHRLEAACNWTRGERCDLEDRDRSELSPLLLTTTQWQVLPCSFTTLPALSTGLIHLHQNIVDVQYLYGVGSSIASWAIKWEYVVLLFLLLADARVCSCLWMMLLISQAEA
Chain of NTCP receptor (Q14973 whole entry): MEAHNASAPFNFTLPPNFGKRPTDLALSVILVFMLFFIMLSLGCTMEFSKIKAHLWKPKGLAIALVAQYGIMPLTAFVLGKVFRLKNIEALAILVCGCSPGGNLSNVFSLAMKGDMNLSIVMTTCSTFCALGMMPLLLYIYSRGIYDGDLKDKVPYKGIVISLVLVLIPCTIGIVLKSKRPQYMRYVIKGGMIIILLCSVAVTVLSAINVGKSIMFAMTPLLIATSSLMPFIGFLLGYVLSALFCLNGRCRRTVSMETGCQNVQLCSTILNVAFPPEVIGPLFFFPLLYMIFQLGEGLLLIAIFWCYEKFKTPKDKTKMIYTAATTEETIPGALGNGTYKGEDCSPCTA

As to `C[C@@H]1O[C@@H](Oc2c(-c3ccc(O)c(O)c3)oc3cc(O)cc(O)c3c2=O)[C@H](O)[C@H](O)[C@H]1O` [Quercetin-3-rhamnoside], the “Molecular Mechanisms: virus infection” value in the series with Influenza virions is given as “Inhibition of virus infection”.
Consider `O=C1C[C@@H](c2ccc(O)cc2)Oc2cc(O)cc(O)c21` [Naringenin], for which, in the series with NS5A, HSP70, HCV virions, the “Molecular Mechanisms: viral translation” value is “Inhibition Of viral” and the “Molecular Mechanisms: virion assembly” value is recorded as “Inhibition of virion”. For the same compound, on Envelope protein, 2, the “Molecular Mechanisms: virion assembly” value is listed as “Inhibition of virion assembly,”.
As for `C[C@@H]1O[C@@H](Oc2cc(O)c3c(=O)c(O)c(-c4ccc(O)c(O)c4)oc3c2)[C@H](O)[C@H](O)[C@H]1O` [quercetin 7-O-rhamnoside], in the series on PEDV, the “IC50, PEDV replication” value is 0.014 µg/mL (≈ 0.0312 µM). The “50% cytotoxicity concentration (CC50)” value in the series on Vero cells is 100 µg/mL.
For the compound `O=c1cc(-c2ccc(O)cc2)oc2cc(O)cc(O)c12` [Apigenin], the “Molecular Mechanisms: HCV replication” value was “Inhibition HCV” with HCV replicase and “Inhibition of HCV” at NS3 protease.
In general, CC50 refers to the concentration at which the toxic effect on the cells reaches its halfway point. With `O=c1c(O)c(-c2ccc(O)c(O)c2)oc2cc(O)cc(O)c12` [Quercetin, 2-(3,4-dihydroxyphenyl)-3,5,7-trihydroxy-4H-1 benzopyran-4-one], the “Molecular Mechanisms: HCV replication” value at NS5B polymerase is on record as “Inhibition of HCV”. The “reduced infectivity of bovine coronavirus NCDCV” value in the series with bovine coronavirus NCDCV was 50%. For the same compound, the “Molecular Mechanisms: virion production” value at NS3 protease (HCV NS3 protease) is listed as “Inhibition of virion production”. In addition, the “Molecular Mechanisms: HCV replication” value at NS3 protease is recorded as “HCV NS3 protease Inhibition of HCV replication,”. The “reduced infectivity of human coronavirus OC43” value with human coronavirus OC43 is on record as 50%. In the series with Vero E6 cells (read-out: cytotoxicity CC50, Vero E6 cells), the CC50 was 3320 µM. In the series on NS5A, HSP70, HCV virions, the “Molecular Mechanisms: viral translation” value is listed as “Inhibition Of viral” and the “Molecular Mechanisms: virion assembly” value is reported as “Inhibition of virion”. Further, in series [1], the “DENV-2 ribonucleic acid (RNA) reduction” value is 67% and the “IC50, DENV-2 replication” value was 35.7 µg/mL (≈ 118 µM). The “Molecular Mechanisms: virion assembly” value on Envelope protein, 2 is on record as “Inhibition of virion assembly,”. For the same compound, in the series with cytomegalovirus, the IC50 is 3.2 ± 0.8 µM.
For `COc1ccc(-c2cc(=O)c3c(OC)c(OC)c(OC)c(OC)c3o2)cc1` [Tangeretin], in the series with Phosphoprotein P, the “Molecular Mechanisms: viral replication” value was “Inhibition of viral replication,” and the “Molecular Mechanisms: RSV entry into cells” value is recorded as “Inhibition of RSV entry into cells”.
With `O=C(O)[C@H]1O[C@@H](Oc2cc3oc(-c4ccccc4)cc(=O)c3c(O)c2O)[C@H](O)[C@@H](O)[C@@H]1O` [Baicalin], in the series on DENV-2 virions, the “Molecular Mechanisms: viral replication” value is “Inhibition of viral replication,” and the “Molecular Mechanisms: viricidal activity” value is “Viricidal activity”.
Turning to `O=c1c(O)c(-c2ccc(O)cc2)oc2cc(O[C@@H]3O[C@H](CO)[C@@H](O)[C@H](O)[C@H]3O)cc(O)c12` [Kaempferol-7-O-glucoside], the “Molecular Mechanisms: virion production” value on HIV protease is “Inhibition virion production”.
For the compound `O=C1c2c(O)cc(O)cc2OC(c2ccc(O)cc2)C1C1C(=O)c2c(O)cc(O)cc2OC1c1ccc(O)cc1` (stereo not drawn) [Chamaejasmin], the “Molecular Mechanisms: NS1 glycosylation” value on NS1 is on record as “Inhibition of NS1 glycosylation”.
Regarding `O=c1cc(-c2ccc(O)cc2)oc2cc(O[C@@H]3O[C@H](CO)[C@@H](O)[C@H](O)[C@H]3O)cc(O)c12` [Apigenin-7-O-glucoside], the “Molecular Mechanisms: viral replication” value in the series on Rotavirus virions is on record as “Inhibition viral”.
For `CC1O[C@@H](OC[C@H]2OC(Oc3cc4c(O)cc(O)cc4[o+]c3-c3cc(O)c(O)c(O)c3)[C@H](O)C(O)C2O)C(O)C(O)[C@H]1O` (stereo partly drawn) [Delphinidin-3-rutinoside], in the series with NOX4, the “Molecular Mechanisms: HSV-1 replication” value is recorded as “Inhibition of HSV-1”.
On to `O=c1cc(-c2ccc(O)c(O)c2)oc2cc(O)cc(O)c12` [Luteolin], for which the entries for the “Molecular Mechanisms: HCV replication” value at NS5B polymerase and with HCV replicase were “Inhibition of HCV” and “Inhibition HCV”, respectively. Moreover, the CC50 in the series on Vero E6 cells is 155 µM. In addition, in the series on SARS-CoV, the EC50 was 10.6 µM.
With Catechin, in the series with NS5A, HSP70, HCV virions, the “Molecular Mechanisms: viral translation” value was “Inhibition Of viral” and the “Molecular Mechanisms: virion assembly” value is listed as “Inhibition of virion”.
`O=c1c(O)c(-c2ccc(O)c(O)c2)oc2cc(O)c(O)c(O)c12` [Quercetagetin]: the “Molecular Mechanisms: RNA binding to NS5B” value at NS5B polymerase (HCV, Ref. [39]) was “Inhibition of RNA binding to NS5B”.
As for `COc1ccc(-c2cc(=O)c3c(OC)c(OC)c(OC)c(OC)c3o2)cc1OC` [Nobiletin], in the series with Phosphoprotein P, the “Molecular Mechanisms: viral replication” value is “Inhibition of viral replication,” and the “Molecular Mechanisms: RSV entry into cells” value is on record as “Inhibition of RSV entry into cells”.
Regarding epigallocatechin-3-gallate [EGCG], the “Molecular Mechanisms: HIV replication” value at Reverse transcriptase is “Inhibition of HIV”. Further, on NS1, the “Molecular Mechanisms: NS1 glycosylation” value is “Inhibition of NS1 glycosylation”. In addition, the “Molecular Mechanisms: HBV entry into cells” value at NTCP receptor is listed as “Inhibition of HBV entryinto”. Further, the “Molecular Mechanisms: virion production” value on HIV protease is “Inhibition virion production”.
For the compound `CC(C)=CC[C@@]12Oc3cc(O)c([C@H]4C=C(C)C[C@H](c5ccc(O)cc5O)[C@H]4C(=O)c4ccc(O)cc4O)c(O)c3C(=O)[C@]1(O)Oc1cc(O)ccc12` [sanggenon O], the “Molecular Mechanisms: NS1 glycosylation” value at NS1 is reported as “Inhibition of NS1 glycosylation”.
